From patent US6458767B1, “Use of peptides inhibitory for thrombospondin dependent TGF-β activation in the treatment of kidney disease” (The UAB Research Foundation, priority 1994, dated 2002)
Ends that are not written are not given here.

Key:
[1] = tested on: rats with anti-Thy1 disease; assay: Glomerular MC-proliferation, MC-activation and macrophage influx in the anti-Thy1 model; format: in vivo, rat
From the text: (§1) Experimental design. Experimental mesangial proliferative glomerulonephritis was induced using the monoclonal mouse anti-Thy1 antibody OX-7. Peptides were continuously infused intravenously (i.v.) via jugular vein using osmotic minipumps starting sixteen hours after disease induction. The effects of the hexapeptide AAWSHW (SEQ ID NO:22) (that interferes with the TSP1-mature TGF-β interaction) or the LSKL-peptide (SEQ ID NO:21) (that blocks the TSP1-LAP interaction) were compared to a control peptide (SLLK) in the anti-Thy1 model. Tissues from different time points (days three, five, eight) of this experiment were analyzed in regard to mesangiolysis, macrophage-influx, MC-proliferation, MC-activation, microaneurysm and matrix formation, GEN proliferation, TSP1, TGF-β1 and 2, as well as TGF-βRI and RII. Functional parameters such as blood pressure, proteinuria, and creatinine clearance were also determined. On day eight, glomerular secretion of active TGF-β was determined in individual animals by incubating isolated glomeruli for twenty-four hours in DMEM and measuring TGF-β activity in glomerular supernatants using the NRK-bioassay.
(§2) Animal model Experimental mesangial proliferative glomerulonephritis (anti-Thy1 model) was induced in Sprague Dawley rats (180-200 g; Charles River, Sulzfeld, Germany) by a single injection of 1 mg/kg of the mouse monoclonal anti-Thy1 antibody OX-7 (European Collection of Animal Cell Culture, Salisbury, England). In this animal model, complete anti-Thy1 antibody binding occurs within an hour (Johnson et al. (1991) Am. J. Pathol. 138 (2), 313-21). To avoid potential interference of the LAP-peptides with anti-Thy1 antibody binding and subsequent mesangiolysis, the peptide treatment was started sixteen hours after disease induction, when binding of the anti-Thy1 antibody to the mesangium and subsequent mesangiolysis had already occurred. The peptides used in this study were synthesized, purified, and analyzed as described elsewhere (Crawford et al. (1998) Cell 93, 1159-1170).
(§3) Renal biopsies as described previously (Hugo et al. (1997) J. Clin. Invest. 100, 786-794) were performed on days three and five, and the experiment was finished on day eight. To determine DNA incorporation into proliferating cells, each animal was injected intravenously with BrdU (50 mg/kg bw) ninety minutes before the second survival biopsy was taken on day five (peak of MC proliferation). Renal biopsies were fixed in methyl Carnoy's, 10% formalin and/or OCT and snap frozen. A twenty-four hour urine collection for measurement of protein and creatinine was done from day seven to eight, when maximal proteinuria occurs in this model (unpublished observation). Blood pressure measurements were done twice before and twice after disease induction. In renal biopsies, the frequency of glomerular microaneurysms, the number of infiltrating macrophages, the number of proliferating MC, the expression of the contractile protein α-sm actin as a marker of MC-activation, and the expression of TGF-β1, TGF-β2, TGF-βRI, TGF-βRII, TSP1, as well as of extracellular matrix proteins such as collagen I, collagen IV and fibronectin were determined. For TGF-β activity measurements in individual animals on day eight, glomeruli were isolated by differential sieving (Johnson et al. (1991) Am. J. Pathol. 138 (2), 313-21) and counted using five aliquots. Glomerular isolates were discarded if purity was less than 95%. 8000 glomeruli/ml were incubated in DMEM at 37° C. After a twenty-four hour incubation period, glomerular supernatants were stored by −70° C. until TGF-β activity measurements were done.
(§4) Peptide infusion. All peptides (at a concentration of 3.5 mg/ml) were continuously infused for seven days via a catheter in the right jugular vein using osmotic minipumps (Alzet Corp./Charles River, Sulzfeld, Germany). […]

[2] = tested on: rats with anti-Thy1 disease; assay: Glomerular extracellular matrix formation (Masson's Trichrome, collagen I, collagen IV, fibronectin stains) in the anti-Thy1 model; format: in vivo, rat
From the text: as §1, §2, §3, §4

TGF-β = assay: Glomerular secretion of active TGF-β (NRK-bioassay of supernatants of isolated glomeruli) in anti-Thy1 rats; format: in vivo, rat; settings: for Active TGF-β (colonies > 62 um): day 8 glomeruli, 24 h supernatant, NRK-bioassay, continuous i.v. peptide infusion
From the text: as §1, §2
as §3, with “After a twenty-four hour incubation period, glomerular supernatants were stored by −70° C. until TGF-β activity measurements were done.” left out

[3] = tested on: rats with anti-Thy1 disease; assay: Functional parameters (proteinuria, creatinine clearance, blood urea nitrogen, systolic blood pressure) in the anti-Thy1 model; format: in vivo, rat; settings: for Proteinuria (mg/24 hours): day 8 (urine collection day seven to eight); for twenty-four hour proteinuria: days seven to eight; for Blood urea nitrogen: rat, in vivo
From the text: as §1, §2, §3, §4

[4] = tested on: rats with anti-Thy1 disease; assay: Glomerular immunostaining score for TGF-β1, TGF-β2, TGF-βRI, TGF-βRII and TSP1 in the anti-Thy1 model; format: in vivo, rat
From the text: as §1, §2, §3, §4

[5] = tested on: rats with anti-Thy1 disease; assay: Mesangiolysis, microaneurysm formation and GEN-proliferation in the anti-Thy1 model; format: in vivo, rat; settings: for Glomerular GEN-proliferation (double staining for RECA-1 and PCNA) / mesangiolysis scores: day three; for mesangiolysis scores: scale 0-IV
From the text: as §1, §2, §3, §4

[6] = tested on: activation of TGF-β by TSP1; settings: background, literature; cited from earlier work

## control/SLLK: control peptide SLLK (SEQ ID NO:47), group 1 [reference compound]
[1]; day 3
  MC-activation α-sm actin (score 0-4): 0.8 ± 0.4 score 0-4
  MC-proliferation (OX-7 + /PCNA + cells/glomerulus): 3.6 ± 0.7 cells/glomerulus
  Macrophages (ED-1 + cells/glomerulus): 4.5 ± 1.6 cells/glomerulus
[1]; day 5
  MC-activation α-sm actin (score 0-4): 2.9 ± 0.3 score 0-4
  MC-proliferation (OX-7 + /BrdU + cells/glomerulus): 4.7 ± 0.8 cells/glomerulus
  MC-proliferation (OX-7 + /PCNA + cells/glomerulus): 9.1 ± 1.5 cells/glomerulus
  Macrophages (ED-1 + cells/glomerulus): 1.9 ± 0.5 cells/glomerulus
[1]; day 8
  MC-activation α-sm actin (score 0-4): 2.9 ± 0.5 score 0-4
  MC-proliferation (OX-7 + /PCNA + cells/glomerulus): 4.2 ± 0.5 cells/glomerulus
  Macrophages (ED-1 + cells/glomerulus): 1.5 ± 0.5 cells/glomerulus
[2]; day 3
  Matrix Collagen 1 (score 0-4): 0.1 ± 0.1 score 0-4
  Matrix Collagen IV (score 0-4): 1.2 ± 0.4 score 0-4
  Matrix Fibronectin (score 0-4): 1.5 ± 0.8 score 0-4
  Matrix Trichrome (score 0-3): 0.7 ± 0.3 score 0-3
[2]; day 5
  Matrix Collagen 1 (score 0-4): 2.3 ± 0.5 score 0-4
  Matrix Collagen IV (score 0-4): 3.3 ± 0.4 score 0-4
  Matrix Fibronectin (score 0-4): 3.2 ± 0.4 score 0-4
  Matrix Trichrome (score 0-3): 1.5 ± 0.2 score 0-3
[2]; day 8
  Matrix Collagen 1 (score 0-4): 2.0 ± 0.5 score 0-4
  Matrix Collagen IV (score 0-4): 2.6 ± 0.6 score 0-4
  Matrix Fibronectin (score 0-4): 2.3 ± 0.9 score 0-4
  Matrix Trichrome (score 0-3): 2.3 ± 0.4 score 0-3
TGF-β
  Active TGF-β (colonies > 62 um): 380 ± 60 colonies > 62 um
[3]
  Proteinuria (mg/24 hours): 83 ± 40 mg/24 hours
  twenty-four hour proteinuria: 83±40 mg/twenty-four hours
  Blood urea nitrogen: 33.2 ± 12.7 mg/dL
[4]; day 3
  TGF-β1 (score 0-4): 0.2 ± 0.2 score 0-4
  TGF-β2 (score 0-4): 0.2 ± 0.1 score 0-4
  TGF-βRI (score 0-4): 0.4 ± 0.2 score 0-4
  TGF-βRII (score 0-4): 0.4 ± 0.3 score 0-4
  TSP I (score 0-4): 0.2 ± 0.2 score 0-4
[4]; day 5
  TGF-β1 (score 0-4): 2.6 ± 0.6 score 0-4
  TGF-β2 (score 0-4): 1.6 ± 0.4 score 0-4
  TGF-βRI (score 0-4): 1.9 ± 0.5 score 0-4
  TGF-βRII (score 0-4): 1.9 ± 0.5 score 0-4
  TSP I (score 0-4): 2.0 ± 0.6 score 0-4
[4]; day 8
  TGF-β1 (score 0-4): 1.5 ± 0.8 score 0-4
  TGF-β2 (score 0-4): 1.3 ± 0.8 score 0-4
  TGF-βRI (score 0-4): 1.8 ± 0.9 score 0-4
  TGF-βRII (score 0-4): 1.3 ± 0.8 score 0-4
  TSP I (score 0-4): 0.6 ± 0.3 score 0-4
[5]; day 3
  Glomerular Microaneurysm (in percent): 34.0 ± 30.1%
[5]; day 5
  Glomerular Microaneurysm (in percent): 20.6 ± 22.7%
[5]; day 8
  Glomerular Microaneurysm (in percent): 6.0 ± 5.9%
[5]
  Glomerular GEN-proliferation (double staining for RECA-1 and PCNA): 2.2 cells/glomerular cross-section
  mesangiolysis scores: 2.7±0.5

## AAWSHW
[6]
  block of activation of TGF-β by TSP1: able to block activation of TGF-β by TSP1
[1]; day 3
  MC-activation α-sm actin (score 0-4): 1.1 ± 0.5 score 0-4
  MC-proliferation (OX-7 + /PCNA + cells/glomerulus): 3.1 ± 0.8 cells/glomerulus
  Macrophages (ED-1 + cells/glomerulus): 3.0 ± 1.8 cells/glomerulus
[1]; day 5
  MC-activation α-sm actin (score 0-4): 2.8 ± 0.5 score 0-4
  MC-proliferation (OX-7 + /BrdU + cells/glomerulus): 4.6 ± 1.9 cells/glomerulus
  MC-proliferation (OX-7 + /PCNA + cells/glomerulus): 8.5 ± 1.6 cells/glomerulus
  Macrophages (ED-1 + cells/glomerulus): 0.9 ± 0.5 cells/glomerulus
[1]; day 8
  MC-activation α-sm actin (score 0-4): 2.5 ± 0.4 score 0-4
  MC-proliferation (OX-7 + /PCNA + cells/glomerulus): 3.9 ± 0.8 cells/glomerulus
  Macrophages (ED-1 + cells/glomerulus): 0.7 ± 0.3 cells/glomerulus
[1]; in words
  MC activation (de novo expression of α-sm-actin): did not significantly alter
[2]; day 3
  Matrix Collagen 1 (score 0-4): 0.1 ± 0.1 score 0-4
  Matrix Collagen IV (score 0-4): 1.0 ± 0.5 score 0-4
  Matrix Fibronectin (score 0-4): 1.3 ± 0.3 score 0-4
  Matrix Trichrome (score 0-3): 0.5 ± 0.3 score 0-3
[2]; day 5
  Matrix Collagen 1 (score 0-4): 0.8 ± 0.6 score 0-4
  Matrix Collagen IV (score 0-4): 2.1 ± 0.6 score 0-4
  Matrix Fibronectin (score 0-4): 1.9 ± 1.2 score 0-4
  Matrix Trichrome (score 0-3): 0.9 ± 0.3 score 0-3
[2]; day 8
  Matrix Collagen 1 (score 0-4): 1.0 ± 0.6 score 0-4
  Matrix Collagen IV (score 0-4): 1.3 ± 0.5 score 0-4
  Matrix Fibronectin (score 0-4): 1.2 ± 0.8 score 0-4
  Matrix Trichrome (score 0-3): 1.4 ± 0.4 score 0-3
[2]; day eight, in words
  extracellular matrix formation as determined by Trichrome staining: markedly suppressed
[2]; time course of anti-Thy1 disease, in words
  glomerular accumulation of collagen I, collagen IV and fibronectin by immunohistochemistry: reduced glomerular accumulation of all three extracellular matrix proteins
TGF-β
  Active TGF-β (colonies > 62 um): 220 ± 70 colonies > 62 um
TGF-β; day eight glomeruli, p<0.01
  glomerular secretion of active TGF-β compared to control peptide (SLLK) treated rats: markedly reduced
[3]
  Proteinuria (mg/24 hours): 51 ± 50 mg/24 hours
  twenty-four hour proteinuria: 51±50 mg/twenty-four hours
  Blood urea nitrogen: 23.6 ± 7.1 mg/dL
[4]; day 3
  TGF-β1 (score 0-4): 0.4 ± 0.2 score 0-4
  TGF-β2 (score 0-4): 0.4 ± 0.3 score 0-4
  TGF-βRI (score 0-4): 0.5 ± 0.3 score 0-4
  TGF-βRII (score 0-4): 0.5 ± 0.5 score 0-4
  TSP I (score 0-4): 0.6 ± 0.2 score 0-4
[4]; day 5
  TGF-β1 (score 0-4): 1.9 ± 0.9 score 0-4
  TGF-β2 (score 0-4): 1.1 ± 0.7 score 0-4
  TGF-βRI (score 0-4): 1.9 ± 0.4 score 0-4
  TGF-βRII (score 0-4): 1.4 ± 0.6 score 0-4
  TSP I (score 0-4): 1.5 ± 0.9 score 0-4
[4]; day 8
  TGF-β1 (score 0-4): 1.6 ± 1.1 score 0-4
  TGF-β2 (score 0-4): 0.5 ± 0.4 score 0-4
  TGF-βRI (score 0-4): 1.6 ± 0.6 score 0-4
  TGF-βRII (score 0-4): 1.2 ± 0.5 score 0-4
  TSP I (score 0-4): 0.8 ± 0.7 score 0-4
[5]; day 3
  Glomerular Microaneurysm (in percent): 12.2 ± 11.6%
[5]; day 5
  Glomerular Microaneurysm (in percent): 15.5 ± 11.8%
[5]; day 8
  Glomerular Microaneurysm (in percent): 1.6 ± 1.8%
[5]
  Glomerular GEN-proliferation (double staining for RECA-1 and PCNA): 1.8±0.6
  mesangiolysis scores: 2.5±0.4
